Assays:
[1] = tested on: cervical cancer cell line U14; test: Tumor growth in mice of the 615 strain transplanted with cervical cancer cell line U14 (Example 6); type: in vivo, mice from the 615 strain; conditions: U14 tumor-bearing 615 mice, 30 consecutive days of treatment, sacrificed on 31st day; AY/NY 0.3 ml oral once per day, MMC 0.8 mg/kg/day s.c.
Text: The following example illustrates the benefit of a biological composition of the invention in a model of human cervical cancer in mice from the 615 strain. The growth of the tumor in the mice was studied.
(§1) The cervical cancer cell line U14 was used in the model which closely resembles the human cervical cancer pathology. Detailed description of the use of cervical cancer cell line U14 can be found in Tao G. et al., 2001, Chin Med J. 114(6):623–7, which is incorporated herein by reference in its entirety.
(§2) The biological composition comprising 10^8 cells per ml of activated and conditioned yeast cells of the strain Saccharomyces carlsbergensis Hansen strain AS2.444 was prepared by the methods described in Section 5.1 and subsections therein.
The animals used to generate the cervical cancer cells for the experiments were female mice from the 615 strain (obtainable from the Chinese Academy of Military Medical Sciences, Beijing, China) having an average body weight of 20 to 22 gram and 4 to 6 months old. […]
The mice received the biological composition, untreated yeast cells, MMC or saline on the same day as the tumor cells were transplanted. […] The weight of the mice and the weight of the tumor were determined by standard techniques.

[2] = tested on: cervical cancer cell line U14; test: Survival of mice of the 615 strain transplanted with cervical cancer cell line U14 (Example 7); type: in vivo; conditions: for Number of live animals remaining in the groups after 30 days of treatment: 30 mice per group, 2AY/2NY 0.5 ml oral per day, 2MMC 1.2 mg/kg/day s.c.
Procedure: The following example illustrates the benefit of a biological composition of the invention in a model of human cervical cancer in mice from the 615 strain. The survival time of mice after tumor injection and treatment was studied.
as §2
The animals were prepared in a similar manner as described in Section 6.1.
(§3) The mice injected with tumor cells were immediately divided into 4 experimental groups of ten mice per group and one control group. The four experimental groups were triplicated (i.e., using a total of 120 mice in the experimental groups). In group 2AY, the mice received 0.5 ml of the biological composition once per day. In group 2NY, the mice received 0.5 ml of the untreated yeast cells once per day. In group 2MMC, the mice were injected subcutaneously with 1.2 mg of mitomycin C (MMC) per kg body weight per day. In group 2CK1, the mice received 0.5 ml of physiological saline once per day.
(§4) The mice received the biological composition, untreated yeast cells, MMC or saline on the same day as the tumor cells were transplanted. The mice in group 2CK2 also started receiving saline on the same day as the other four groups. The biological composition, untreated yeast cells and saline were administered orally by a feeding tube and the MMC by subcutaneous injection for 30 consecutive days. The mice were observed over 6 months from the day of tumor inoculation and survival was recorded. The weight of the mice and the weight of the tumor were determined by standard techniques.

[3] = tested on: cervical cancer cell line U27; test: Tumor growth in kun ming mice transplanted with cervical cancer cell line U27 (Example 8); type: in vivo, kun ming mouse; conditions: U27 tumor-bearing kun ming mice, 30 consecutive days of treatment, sacrificed on 31st day; AY/NY 0.3 ml oral once per day, VCR 3 mg/kg/day i.v.
Text: The following example illustrates the benefit of a biological composition of the invention in a kun ming mouse model of human cervical cancer. The growth of the tumor in the mice was studied.
as §1, with “U27” for “U14”, “Qian S. S.” for “Tao G.”, “1987, Zhongguo Yi Xue Ke Xue Yuan Xue Bao 9(1):33–7,” for “2001, Chin Med J. 114(6):623–7,”
as §2
The animals used to generate the cervical cancer cells for the experiments were female kun ming mouse (obtainable from the Chinese Academy of Military Medical Sciences, Beijing, China) having an average body weight of 20 to 22 gram and 5 to 6 months old. […]
The mice received the biological composition, untreated yeast cells, VCR or saline on the same day as the tumor cells were transplanted. […] The weight of the mice and the weight of the tumor were determined by standard techniques.

[4] = tested on: cervical cancer cell line U27; test: Survival of kun ming mice transplanted with cervical cancer cell line U27 (Example 9); type: in vivo; conditions: for Number of live animals remaining in the groups after 30 days of treatment: 30 mice per group, 2AY/2NY 0.5 ml oral per day, 2VCR 4.5 mg/kg/day i.v.
Procedure: The following example illustrates the benefit of a biological composition of the invention in a kun ming mouse model of human cervical cancer. The survival time of mice after tumor injection and treatment was studied.
as §2
The animals were prepared in a similar manner as described in Section 8.1.
as §3, with “2VCR,” for “2MMC,”, “intravenously” for “subcutaneously”, “4.5” for “1.2”, “[…] (VCR)” for “mitomycin C (MMC)”
as §4, with “VCR” for “MMC”, “intravenous” for “subcutaneous”

[5] = 0 month after cessation of treatment
[6] = 1 month after cessation of treatment
[7] = 2 months after cessation of treatment
[8] = 3 months after cessation of treatment
[9] = 4 months after cessation of treatment
[10] = 5 months after cessation of treatment
[11] = 6 months after cessation of treatment
[12] = surviving mice after 6 months observation, U14, 615 mice, 0.5 ml oral per day (2MMC 1.2 mg/kg/day s.c.) for 30 days
[13] = surviving mice after 6 months observation, U27, kun ming mice, 0.5 ml oral per day (2VCR 4.5 mg/kg/day i.v.) for 30 days

For `CO[C@@]12[C@H](COC(N)=O)C3=C(C(=O)C(C)=C(N)C3=O)N1C[C@@H]1N[C@@H]12` [MMC, mitomycin C], the “mean weight of mice and standard deviation” value [1] was 19.3 ± 3.3 g, the “mean weight of tumor nodules and standard deviation” value [1] was 4.4 ± 2.23 mg and the “Number of live animals remaining in the groups after 30 days of treatment” value (“Number of live animals remaining” below) [2, 5] was 30. For the same compound, the “Number of live animals remaining” value [2, 6] was 30, the “Number of live animals remaining” value [2, 7] was 24 and the “Number of live animals remaining” value [2, 8] was 13. The “Number of live animals remaining” value [2, 9] was 0, the “Number of live animals remaining” value [2, 10] was 0 and the “Number of live animals remaining” value [2, 11] was 0. For the same compound, the “death during the experiment” value ([2]; observed over 6 months, 2NY 0.5 ml per day, 2MMC 1.2 mg/kg/day) was “all died during the experiment”, the “mean weight of mice and standard deviation” value [2, 12] was “all animals dead” and the “mean weight of tumor nodules and standard deviation” value [2, 12] was “all animals dead”.
With `CC[C@]1(O)C[C@@H]2CN(CCc3c([nH]c4ccccc34)[C@@](C(=O)OC)(c3cc4c(cc3OC)N(C)[C@H]3[C@@](O)(C(=O)OC)[C@H](OC(C)=O)[C@]5(CC)C=CCN6CC[C@]43[C@@H]65)C2)C1` [VCR, vinblastine] the “mean weight of mice and standard deviation” value [3] was 18.5 ± 3.7 g, the “mean weight of tumor nodules and standard deviation” value [3] was 4.77 ± 2.79 g and the “Number of live animals remaining” value [4, 5] was 30. The “Number of live animals remaining” value [4, 6] was 30, the “Number of live animals remaining” value [4, 7] was 22 and the “Number of live animals remaining” value [4, 8] was 17. The “Number of live animals remaining” value [4, 9] was 4, the “Number of live animals remaining” value [4, 10] was 0 and the “Number of live animals remaining” value [4, 11] was 0. The “death during the experiment” value ([4]; observed over 6 months, 2NY 0.5 ml per day, 2VCR 4.5 mg/kg/day) was “all died during the experiment”, the “mean weight of mice and standard deviation” value [4, 13] was “all animals dead” and the “mean weight of tumor nodules and standard deviation” value [4, 13] was “all animals dead”.

Source: patent publication US7172889B2, “Biological compositions and methods for treatment of cervical cancer” (Ultra Biotech Limited, priority 2003, dated 2007)
